ChEMBL document CHEMBL6092174, “Synthesis and anti-influenza virus activity of substituted dibenzoxepine-based baloxavir derivatives” (Eur J Med Chem, 2024)

What follows are compounds tested on Influenza A virus (assay: Antiviral activity against Influenza A virus NA-H274Y (A/PR/8/34) infected in dog MDCK cells assessed as reduction in cytopathic effect incubated for 2 days).
Format: functional, organism-based

First: O=C1c2c(O)c(=O)ccn2N([C@@H]2c3ccccc3OCc3c(Cl)cccc32)[C@@H]2COCCN12
Second: O=C1c2c(O)c(=O)ccn2N([C@H]2c3ccc(F)cc3COc3ccccc32)[C@@H]2COCCN12
The EC50 of the first is 4.9-fold higher: 20.5 nM for the first, 4.2 nM for the second.

Work on `O=C1c2c(O)c(=O)ccn2N([C@@H]2c3ccccc3SCc3c2ccc(F)c3F)[C@@H]2COCCN12` [BALOXAVIR] yielded an EC50 of 2.18 nM.
